Each compound was assayed against Granzyme B (human lymphocytes) (Homo sapiens (Human), UniProt P10144) (assay: human Granzyme B biochemical assay). Details: Granzyme B (human lymphocytes) 5 nM, substrate Ac-IETD-AFC 200 μM, Cpd incubation with enzyme 30 mins, 22° C., read time 60 mins; read-out: IC50.
Granzyme B (human lymphocytes), sequence (P10144 21-247): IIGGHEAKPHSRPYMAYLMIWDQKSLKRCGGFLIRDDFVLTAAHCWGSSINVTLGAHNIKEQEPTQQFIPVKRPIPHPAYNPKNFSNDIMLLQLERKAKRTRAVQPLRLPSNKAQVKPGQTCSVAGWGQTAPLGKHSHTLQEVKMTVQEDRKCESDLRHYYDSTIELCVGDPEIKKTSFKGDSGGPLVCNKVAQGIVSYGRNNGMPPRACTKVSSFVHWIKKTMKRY
In short: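 Fluorogenic Ac-IETD-AFC cleavage (Ex 400/Em 505 nm) read after 60 min at 22 °C, following 30 min, 22 °C enzyme–compound pre-incubation. Working stocks: enzyme 10 nM in 0.1% BSA buffer, substrate 800 µM, compound 8 points, 3.16-fold from 40 µM. Controls set 0% (DMSO) and 100% (standard inhibitor) inhibition; IC50 fitted.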
Work on `Cc1cccc(C(=O)N[C@H](C(=O)N[C@H]2CCc3cccc4c3N(C2=O)[C@H](C(=O)NCc2c[nH]nn2)C4)C(C)C)c1` [Compound C051, (2S,5S)-5-[(S)-3-Methyl-2-(3-methyl-benzoylamino)-butyrylamino]-4-oxo-1,2,4,5,6,7-hexahydro-azepino[3,2,1-hi]indole-2-carboxylic acid (1H-[1,2,3]triazol-4-ylmethyl)-amide] yielded an IC50 of 1 to 300 nM.
Work on `Cc1ccc(C(=O)N[C@H](C(=O)N[C@H]2CCc3cccc4c3N(C2=O)[C@H](C(=O)NCc2c[nH]nn2)C4)C(C)C)cc1` [Compound C052, (2S,5S)-5-[(S)-3-Methyl-2-(4-methyl-benzoylamino)-butyrylamino]-4-oxo-1,2,4,5,6,7-hexahydro-azepino[3,2,1-hi]indole-2-carboxylic acid (1H-[1,2,3]triazol-4-ylmethyl)-amide] yielded an IC50 of 1 to 300 nM.
`CC([C@H](NC(=O)c1ccccc1)C(=O)N[C@H]1CCc2cccc3c2N(C1=O)[C@H](C(=O)NCc1c[nH]nn1)C3)C(F)(F)F` (stereo partly drawn) [Compound C055, (2S,5S)-5-((S)-2-Benzoylamino-4,4,4-trifluoro-3-methyl-butyrylamino)-4-oxo-1,2,4,5,6,7-hexahydro-azepino[3,2,1-hi]indole-2-carboxylic acid (1H-[1,2,3]triazol-4-ylmethyl)-amide] was tested, and the IC50 was 1 to 300 nM.
`CC[C@H](C)[C@H](NC(=O)c1ccccc1OC)C(=O)N[C@H]1CCc2cccc3c2N(C1=O)[C@H](C(=O)NCc1c[nH]nn1)C3` [Compound C060, (2S,5S)-5-[(2S,3S)-2-(2-Methoxy-benzoylamino)-3-methyl-pentanoylamino]-4-oxo-1,2,4,5,6,7-hexahydro-azepino[3,2,1-hi]indole-2-carboxylic acid(1H-[1,2,3]triazol-4-ylmethyl)-amide] was tested, and the IC50 was 1 to 300 nM.
`CC[C@H](C)[C@H](NC(=O)c1cccc(OC)c1)C(=O)N[C@H]1CCc2cccc3c2N(C1=O)[C@H](C(=O)NCc1c[nH]nn1)C3` [Compound C061, (2S,5S)-5-[(2S,3S)-2-(3-Methoxy-benzoylamino)-3-methyl-pentanoylamino]-4-oxo-1,2,4,5,6,7-hexahydro-azepino[3,2,1-hi]indole-2-carboxylic acid(1H-[1,2,3]triazol-4-ylmethyl)-amide] showed an IC50 of 1 to 300 nM.
For `CC[C@H](C)[C@H](NC(=O)c1ccc(OC)cc1)C(=O)N[C@H]1CCc2cccc3c2N(C1=O)[C@H](C(=O)NCc1c[nH]nn1)C3` [Compound C062, (2S,5S)-5-[(2S,3S)-2-(4-Methoxy-benzoylamino)-3-methyl-pentanoylamino]-4-oxo-1,2,4,5,6,7-hexahydro-azepino[3,2,1-hi]indole-2-carboxylic acid(1H-[1,2,3]triazol-4-ylmethyl)-amide], the IC50 was 1 to 300 nM.
`COc1ccccc1C(=O)N[C@H](C(=O)N[C@H]1CCc2cccc3c2N(C1=O)[C@H](C(=O)NCc1c[nH]nn1)C3)C(C)C` [Compound C063, (2S,5S)-5-[(S)-2-(2-Methoxy-benzoylamino)-3-methyl-butyrylamino]-4-oxo-1,2,4,5,6,7-hexahydro-azepino[3,2,1-hi]indole-2-carboxylic acid (1H-[1,2,3]triazol-4-ylmethyl)-amide] showed an IC50 of 1 to 300 nM.
For `COc1cccc(C(=O)N[C@H](C(=O)N[C@H]2CCc3cccc4c3N(C2=O)[C@H](C(=O)NCc2c[nH]nn2)C4)C(C)C)c1` [Compound C064, (2S,SS)-5-[(S)-2-(3-Methoxy-benzoylamino)-3-methyl-butyrylamino]-4-oxo-1,2,4,5,6,7-hexahydro-azepino[3,2,1-hi]indole-2-carboxylic acid (1H-[1,2,3]triazol-4-ylmethyl)-amide], the IC50 was 1 to 300 nM.
In the case of `COc1ccc(C(=O)N[C@H](C(=O)N[C@H]2CCc3cccc4c3N(C2=O)[C@H](C(=O)NCc2c[nH]nn2)C4)C(C)C)cc1` [Compound C065, (2S,5S)-5-[(S)-2-(4-Methoxy-benzoylamino)-3-methyl-butyrylamino]-4-oxo-1,2,4,5,6,7-hexahydro-azepino[3,2,1-hi]indole-2-carboxylic acid (1H-[1,2,3]triazol-4-ylmethyl)-amide], the IC50 is reported as 1 to 300 nM.
`CC[C@H](C)[C@H](NC(=O)c1ccccn1)C(=O)N[C@H]1CCc2cccc3c2N(C1=O)[C@H](C(=O)NCc1c[nH]nn1)C3` [Compound C066, (2S,5S)-5-{(2S,3S)-3-Methyl-2-[(pyridine-2-carbonyl)-amino]-pentanoylamino}-4-oxo-1,2,4,5,6,7-hexahydro-azepino[3,2,1-hi]indole-2-carboxylicacid (1H-[1,2,3]triazol-4-ylmethyl)-amide] gave an IC50 of 1 to 300 nM.
`CC[C@H](C)[C@H](NC(=O)c1cccnc1)C(=O)N[C@H]1CCc2cccc3c2N(C1=O)[C@H](C(=O)NCc1c[nH]nn1)C3` [Compound C067, (2S,5S)-5-{(2S,3S)-3-Methyl-2-[(pyridine-3-carbonyl)-amino]-pentanoylamino}-4-oxo-1,2,4,5,6,7-hexahydro-azepino[3,2,1-hi]indole-2-carboxylicacid (1H-[1,2,3]triazol-4-ylmethyl)-amide] showed an IC50 of 1 to 300 nM.
Compound `CC[C@H](C)[C@H](NC(=O)c1ccncc1)C(=O)N[C@H]1CCc2cccc3c2N(C1=O)[C@H](C(=O)NCc1c[nH]nn1)C3` [Compound C068, (2S,5S)-5-{(2S,3S)-3-Methyl-2-[(pyridine-4-carbonyl)-amino]-pentanoylamino}-4-oxo-1,2,4,5,6,7-hexahydro-azepino[3,2,1-hi]indole-2-carboxylicacid (1H-[1,2,3]triazol-4-ylmethyl)-amide] has an IC50 of 1 to 300 nM.
Compound `CC(C)[C@H](NC(=O)c1ccccn1)C(=O)N[C@H]1CCc2cccc3c2N(C1=O)[C@H](C(=O)NCc1c[nH]nn1)C3` [Compound C069, (2S,5S)-5-{(S)-3-Methyl-2-[(pyridine-2-carbonyl)-amino]-butyrylamino}-4-oxo-1,2,4,5,6,7-hexahydro-azepino[3,2,1-hi]indole-2-carboxylic acid (1H-[1,2,3]triazol-4-ylmethyl)-amide] has an IC50 of 1 to 300 nM.
`CC(C)[C@H](NC(=O)c1cccnc1)C(=O)N[C@H]1CCc2cccc3c2N(C1=O)[C@H](C(=O)NCc1c[nH]nn1)C3` [Compound C070, (2S,5S)-5-{(S)-3-Methyl-2-[(pyridine-3-carbonyl)-amino]-butyrylamino}-4-oxo-1,2,4,5,6,7-hexahydro-azepino[3,2,1-hi]indole-2-carboxylic acid (1H-[1,2,3]triazol-4-ylmethyl)-amide] gave an IC50 of 1 to 300 nM.
`CC(C)[C@H](NC(=O)c1ccncc1)C(=O)N[C@H]1CCc2cccc3c2N(C1=O)[C@H](C(=O)NCc1c[nH]nn1)C3` [Compound C071, (2S,5S)-5-{(S)-3-Methyl-2-[(pyridine-4-carbonyl)-amino]-butyrylamino}-4-oxo-1,2,4,5,6,7-hexahydro-azepino[3,2,1-hi]indole-2-carboxylic acid (1H-[1,2,3]triazol-4-ylmethyl)-amide] gave an IC50 of 1 to 300 nM.
For `CCC(CC)[C@H](NC(=O)Cc1csc2ccccc12)C(=O)N[C@H]1CCc2cccc3c2N(C1=O)[C@H](C(=O)NCc1c[nH]nn1)C3` [Compound C072, (2S,5S)-5-[(S)-2-(2-Benzo[b]thiophen-3-yl-acetylamino)-3-ethyl-pentanoylamino]-4-oxo-1,2,4,5,6,7-hexahydro-azepino[3,2,1-hi]indole-2-carboxylic acid (1H-[1,2,3]triazol-4-ylmethyl)-amide], the IC50 was 301 to 1000 nM.
`CCC(CC)[C@H](NC(=O)c1ccccc1)C(=O)N[C@H]1CCc2cccc3c2N(C1=O)[C@H](C(=O)NCc1c[nH]nn1)C3` [Compound C073, (2S,5S)-5-((S)-2-Benzoylamino-3-ethyl-pentanoylamino)-4-oxo-1,2,4,5,6,7-hexahydro-azepino[3,2,1-hi]indole-2-carboxylic acid (1H-[1,2,3]triazol-4-ylmethyl)-amide] gave an IC50 of 301 to 1000 nM.
In the case of `CCC(CC)[C@H](NC(C)=O)C(=O)N[C@H]1CCc2cccc3c2N(C1=O)[C@H](C(=O)NCc1c[nH]nn1)C3` [Compound C074, (2S,5S)-5-((S)-2-Acetylamino-3-ethyl-pentanoylamino)-4-oxo-1,2,4,5,6,7-hexahydro-azepino[3,2,1-hi]indole-2-carboxylic acid (1H-[1,2,3]triazol-4-ylmethyl)-amide], the IC50 is reported as 1 to 300 nM.
For `O=C(Cc1csc2ccccc12)N[C@H](C(=O)N[C@H]1CCc2cccc3c2N(C1=O)[C@H](C(=O)NCc1c[nH]nn1)C3)C1CCCC1` [Compound C075, (2S,5S)-5-[(S)-2-(2-Benzo[b]thiophen-3-yl-acetylamino)-2-cyclopentyl-acetylamino]-4-oxo-1,2,4,5,6,7-hexahydro-azepino[3,2,1-hi]indole-2-carboxylic acid (1H-[1,2,3]triazol-4-ylmethyl)-amide], the IC50 was 1 to 300 nM.
In the case of `O=C(N[C@H](C(=O)N[C@H]1CCc2cccc3c2N(C1=O)[C@H](C(=O)NCc1c[nH]nn1)C3)C1CCCC1)c1ccccc1` [Compound C076, (2S,5S)-5-((S)-2-Benzoylamino-2-cyclopentyl-acetylamino)-4-oxo-1,2,4,5,6,7-hexahydro-azepino[3,2,1-hi]indole-2-carboxylic acid (1H-[1,2,3]triazol-4-ylmethyl)-amide], the IC50 is reported as 1 to 300 nM.
With `CC(=O)N[C@H](C(=O)N[C@H]1CCc2cccc3c2N(C1=O)[C@H](C(=O)NCc1c[nH]nn1)C3)C1CCCC1` [Compound C077, (2S,5S)-5-((S)-2-Acetylamino-2-cyclopentyl-acetylamino)-4-oxo-1,2,4,5,6,7-hexahydro-azepino[3,2,1-hi]indole-2-carboxylic acid (1H-[1,2,3]triazol-4-ylmethyl)-amide] the IC50 was 1 to 300 nM.
`O=C(Cc1csc2ccccc12)N[C@H](C(=O)N[C@H]1CCc2cccc3c2N(C1=O)[C@H](C(=O)NCc1c[nH]nn1)C3)C1CCCCC1` [Compound C078, (2S,5S)-5-[(S)-2-(2-Benzo[b]thiophen-3-yl-acetylamino)-2-cyclohexyl-acetylamino]-4-oxo-1,2,4,5,6,7-hexahydro-azepino[3,2,1-hi]indole-2-carboxylic acid (1H-[1,2,3]triazol-4-ylmethyl)-amide] was tested, and the IC50 was 301 to 1000 nM.

Source: patent US11667645B2, “Granzyme B directed imaging and therapy” (CytoSite Biopharma Inc., priority 2018, dated 2023)
